test system: HIV-IIIb; assay: Test A: Antiviral Assays in MT4 Cells; format: cell-based; settings: Human immunodeficiency virus 1, IIIB, MT4, 120 h
Protocol: Test A: Antiviral Assays in MT4 Cells
For the antiviral assay utilizing MT-4 cells, 0.4 μL of […] test concentration of 3-fold serially diluted compound in DMSO was added to 40 μL of cell growth medium (RPMI 1640, 10% FBS, 1% penicillin/Streptomycin, 1% L-Glutamine, 1% HEPES) in each well of 384-well assay plates (10 concentrations) in quadruplicate.
1 mL aliquots of 2×10e6 MT-4 cells are pre-infected for 1 and 3 hrs respectively, @37° C. with 25 μL (MT4) or of either cell growth medium (mock-infected) or a fresh 1:250 dilution of an HIV-IIIb concentrated ABI stock (0.004 m.o.i. for MT4 cells). Infected and uninfected cells are diluted in cell growth medium and 35 uL of 2000 (for MT4) cells is added to each well of the assay plates.
Assay plates were then incubated in a 37° C. incubator. After 5 days of incubation, 25 μl of 2× concentrated CellTiter-Glo™ Reagent (catalog #G7573, Promega Biosciences, Inc., Madison, Wis.) was added to each well of the assay plate. Cell lysis was carried out by incubating at room temperature for 2-3 min and then chemiluminescence was read using the Envision reader (PerkinElmer).

Row | SMILES | EC50 [nM]
1 | Cc1cc2ccccc2c(-c2cccc(N3CCC3)c2)c1[C@H](OC(C)(C)C)C(=O)O [Compound 19, (S)-2-(1-(3-(Azetidin-1-yl)phenyl)-3-methylnaphthalen-2-yl)-2-tert-butoxyacetic acid] | 5400

same assay, conditions: Human immunodeficiency virus 1, IIIB, MT4, 120 h, MT-4 cells infected with HIV-IIIb (0.004 m.o.i.), 5 days of incubation, CellTiter-Glo chemiluminescence readout; read-out: EC50

Row | SMILES | EC50 [nM]
2 | Cc1cc2cc(-c3ccc(Cl)cc3)ccc2c(-c2ccc(Cl)cc2)c1C(OC(C)(C)C)C(=O)O (stereo not shown) [Compound 66, 2-(1,6-Bis(4-chlorophenyl)-3-methylnaphthalen-2-yl)-2-tert-butoxyacetic acid] | 290
3 | Cc1cc2cc(-c3cn[nH]c3)ccc2c(-c2ccc(Cl)cc2)c1[C@H](OC(C)(C)C)C(=O)O [Compound 57, (S)-2-tert-Butoxy-2-(1-(4-chlorophenyl)-3-methyl-6-(1H-pyrazol-4-yl)naphthalen-2-yl)acetic acid] | 82
4 | Cc1c(C(OC(C)(C)C)C(=O)O)c(-c2ccc(Cl)cc2)c2ccccc2c1CO (stereo not shown) [Compound 135, 2-tert-Butoxy-2-(1-(4-chlorophenyl)-4-(hydroxymethyl)-3-methylnaphthalen-2-yl)acetic acid] | 45
5 | Cc1cc2ccc(Br)cc2c(-c2ccc(Cl)cc2)c1C(OC(C)(C)C)C(=O)O (stereo not shown) [Compound 71, 2-(7-Bromo-1-(4-chlorophenyl)-3-methylnaphthalen-2-yl)-2-tert-butoxyacetic acid] | 35000
6 | C=Cc1ccc2cc(C)c(C(OC(C)(C)C)C(=O)O)c(-c3ccc(Cl)cc3)c2c1 (stereo not shown) [Compound 76, 2-tert-Butoxy-2-(1-(4-chlorophenyl)-3-methyl-7-vinylnaphthalen-2-yl)acetic acid] | 930
7 | Cc1cc2c(-c3ccc(Cl)cc3)cccc2c(-c2ccc(Cl)cc2)c1C(OC(C)(C)C)C(=O)O (stereo not shown) [Compound 38, 2-(1,5-Bis(4-chlorophenyl)-3-methylnaphthalen-2-yl)-2-tert-butoxyacetic acid] | 3400
8 | CCc1ccc2c(-c3ccc4c5c(ccnc35)CCO4)c([C@H](OC(C)(C)C)C(=O)O)c(C)cc2c1F (atropisomer, axis not shown) [Compound 120, (S)-2-tert-Butoxy-2-((R)-1-(2,3-dihydropyrano[4,3,2-de]quinolin-7-yl)-6-ethyl-5-fluoro-3-methylnaphthalen-2-yl)acetic acid] | 32
9 | CC(C)(C)O[C@H](C(=O)O)c1c(CO)cc2ccccc2c1-c1ccc(Cl)cc1 [Compound 30, (S)-2-tert-Butoxy-2-(1-(4-chlorophenyl)-3-(hydroxymethyl)naphthalen-2-yl)acetic acid] | 44
10 | Cc1cc2ccc(F)cc2c(-c2ccc3c4c(ccnc24)CCO3)c1[C@H](OC(C)(C)C)C(=O)O (atropisomer, axis not shown) [Compound 179] | 18700
11 | Cc1c(C(OC(C)(C)C)C(=O)O)c(-c2ccc(Cl)cc2)c2ccccc2c1-c1ccc(N)nc1 (stereo not shown) [Compound 143, 2-(4-(6-Aminopyridin-3-yl)-1-(4-chlorophenyl)-3-methylnaphthalen-2-yl)-2-tert-butoxyacetic acid] | 56
12 | Cc1cc2cc(Cl)ccc2c(-c2ccc3c4c(ccnc24)CCO3)c1[C@@H](OC(C)(C)C)C(=O)O (atropisomer, axis not shown) [Compound 177] | 37000
13 | Cc1cc2ccc(C#CC(C)(C)N)cc2c(-c2ccc3c4c(ccnc24)CCO3)c1C(OC(C)(C)C)C(=O)O [Compound 86, (S)-2-((R)-7-(3-Amino-3-methylbut-1-ynyl)-1-(2,3-dihydropyrano[4,3,2-de]quinolin-7-yl)-3-methylnaphthalen-2-yl)-2-tert-butoxyacetic acid] | 980
14 | Cc1cc2cc(C3CC3)c(F)cc2c(-c2ccc3c4c(ccnc24)CCO3)c1[C@H](OC(C)(C)C)C(=O)O (atropisomer, axis not shown) [Compound 170] | 29000
15 | C=Cc1cc2ccccc2c(-c2ccc(Cl)cc2)c1[C@H](OC(C)(C)C)C(=O)O [Compound 29A, (S)-2-tert-Butoxy-2-(1-(4-chlorophenyl)-3-vinylnaphthalen-2-yl)acetic acid] | 130
16 | Cc1cc2cc(-c3ncccn3)ccc2c(-c2ccc(Cl)cc2)c1[C@H](OC(C)(C)C)C(=O)O [Compound 59, (S)-2-tert-butoxy-2-(1-(4-chlorophenyl)-3-methyl-6-(pyrimidin-2-yl)naphthalen-2-yl)acetic acid] | 160
17 | Cc1cc2ccc(C#CC(C)(O)c3ccccc3)cc2c(-c2ccc(Cl)cc2)c1C(OC(C)(C)C)C(=O)O (stereo not shown) [Compound 88, 2-tert-Butoxy-2-(1-(4-chlorophenyl)-7-(3-hydroxy-3-phenylbut-1-ynyl)-3-methylnaphthalen-2-yl)acetic acid] | 24
18 | Cc1c(C(OC(C)(C)C)C(=O)O)c(-c2ccc(Cl)cc2)c2ccccc2c1-c1ccc(=O)[nH]c1 (stereo not shown) [Compound 144, 2-tert-Butoxy-2-(1-(4-chlorophenyl)-3-methyl-4-(6-oxo-1,6-dihydropyridin-3-yl)naphthalen-2-yl)acetic acid] | 1300
19 | Cc1cc2ccc(CCC3CC3)cc2c(-c2ccc(Cl)cc2)c1C(OC(C)(C)C)C(=O)O (stereo not shown) [Compound 92, 2-tert-Butoxy-2-(1-(4-chlorophenyl)-7-(2-cyclopropylethyl)-3-methylnaphthalen-2-yl)acetic acid] | 7100
20 | CNC(=O)c1cc2cc(C)c([C@H](OC(C)(C)C)C(=O)O)c(-c3ccc4c5c(ccnc35)CCO4)c2cc1F (atropisomer, axis not shown) [Compound 166] | 16000
21 | Cc1cc2c(C#N)c(C)ccc2c(-c2ccc3c4c(ccnc24)CCO3)c1[C@H](OC(C)(C)C)C(=O)O (atropisomer, axis not shown) [Compound 118, (S)-2-tert-Butoxy-2-((R)-5-cyano-1-(2,3-dihydropyrano[4,3,2-de]quinolin-7-yl)-3,6-dimethylnaphthalen-2-yl)acetic acid] | 36
22 | Cc1cc2cc(F)ccc2c(-c2ccc(Cl)cc2)c1C(OC(C)(C)C)C(=O)O (stereo not shown) [Compound 42, 2-tert-Butoxy-2-(1-(4-chlorophenyl)-6-fluoro-3-methylnaphthalen-2-yl)acetic acid] | 110
23 | CC(C)=Cc1ccc2cc(C)c(C(OC(C)(C)C)C(=O)O)c(-c3ccc(Cl)cc3)c2c1 (stereo not shown) [Compound 77, 2-tert-butoxy-2-(1-(4-chlorophenyl)-3-methyl-7-(2-methylprop-1-enyl)naphthalen-2-yl)acetic acid] | 8900
24 | CCc1cc2cc(C)c([C@H](OC(C)(C)C)C(=O)O)c(-c3ccc4c5c(ccnc35)CCO4)c2cc1F (atropisomer, axis not shown) [Compound 165] | 53000
25 | Cc1cc2ccc(C#CC(C)(C)N)cc2c(-c2ccc3c4c(ccnc24)CCO3)c1C(OC(C)(C)C)C(=O)O (stereo not shown) [Compound 176] | 12000
26 | Cc1cc2ccc(CCC3CCCC3)cc2c(-c2ccc(Cl)cc2)c1C(OC(C)(C)C)C(=O)O (stereo not shown) [Compound 90, 2-tert-Butoxy-2-(1-(4-chlorophenyl)-7-(2-cyclopentylethyl)-3-methylnaphthalen-2-yl)acetic acid] | 31000

same assay, conditions: MT-4 cells infected with HIV-IIIb (0.004 m.o.i.), 5 days of incubation, CellTiter-Glo chemiluminescence readout; read-out: EC50

Row | SMILES | EC50 [nM]
27 | Cc1cc2c(F)c(CO)ccc2c(-c2ccc3c4c(ccnc24)CCO3)c1[C@H](OC(C)(C)C)C(=O)O [Compound 186B, (S)-2-tert-butoxy-2-((R)-1-(2,3-dihydropyrano[4,3,2-de]quinolin-7-yl)-5-fluoro-6-(hydroxymethyl)-3-methylnaphthalen-2-yl)acetic acid] | 24
28 | Cc1cc2c(Cl)cccc2c(-c2ccc3c4c(ccnc24)CCO3)c1C(OC(C)(C)C)C(=O)O (stereo not shown) [Compound 163] | 16000
29 | Cc1cc2c(C)c(C)ccc2c(-c2ccc3c4c(ccnc24)CCO3)c1[C@H](OC(C)(C)C)C(=O)O [Compound 117, (S)-2-tert-Butoxy-2-((R)-1-(2,3-dihydropyrano[4,3,2-de]quinolin-7-yl)-3,5,6-trimethylnaphthalen-2-yl)acetic acid] | 11
30 | Cc1c([C@H](OC(C)(C)C)C(=O)O)c(-c2ccc3c4c(ccnc24)CCO3)c2ccccc2c1F [Compound 122, (2S)-2-tert-butoxy-2-((R)-1-(2,3-dihydropyrano[4,3,2-de]quinolin-7-yl)-4-fluoro-3-methylnaphthalen-2-yl)acetic acid] | 36
31 | Cc1cc2c(F)c(Cl)ccc2c(-c2ccc3c4c(ccnc24)CCO3)c1[C@H](OC(C)(C)C)C(=O)O (atropisomer, axis not shown) [Compound 152] | 5800
32 | Cc1cc2cc(C)c([C@H](OC(C)(C)C)C(=O)O)c(-c3ccc4c5c(ccnc35)CCO4)c2cc1F (atropisomer, axis not shown) [Compound 156] | 7300
33 | Cc1cc2ccc(Cl)cc2c(-c2ccc3c4c(ccnc24)CCO3)c1C(OC(C)(C)C)C(=O)O (racemic) [Compound 124, (±)-(S)-2-tert-butoxy-2-((R)-7-chloro-1-(2,3-dihydropyrano[4,3,2-de]quinolin-7-yl)-3-methylnaphthalen-2-yl)acetic acid] | 150
34 | Cc1cc2cc(Cl)ccc2c(-c2ccc3c4c(ccnc24)CCO3)c1[C@H](OC(C)(C)C)C(=O)O [Compound 68A, (S)-2-tert-Butoxy-2-((R)-6-chloro-1-(2,3-dihydropyrano[4,3,2-de]quinolin-7-yl)-3-methylnaphthalen-2-yl)acetic acid] | 14
